Data set [1] is described as follows: Stability in water by UV/Vis spectroscopy. It is filed as physicochemical. The conditions noted are these: 50 µM, after 72 hours. How it is done: In the case of the Au(III) complexes, both the BODIPY conjugated complex 7a and the parent Dp44mT complex 8a ostensibly decomposed in cell culture medium, as their absorption profiles in media lacked the characteristic charge transfer band at λmax ∼440 nm observed in water. […] However, a slight shift in the λmax coupled with a decrease in absorbance was observed (Figure 4D).
(§1) Stability in Cell Culture Medium and Water
(§2) 5 mM stocks of the respective compounds in DMSO were diluted to produce a final concentration of 50 µM in water or Dulbecco's Modified Eagle's Medium (DMEM) containing 10% fetal bovine serum and 1% penicillin + streptomycin , respectively. The stability of the compounds was monitored via UV/Vis spectroscopy by recording the corresponding absorption profiles of the 50 µM solutions and comparing any changes to the profiles over […]

Data set [2] in a line: Stability in cell culture medium by UV/Vis spectroscopy. Format: physicochemical. The conditions noted are these: 50 µM, DMEM with 10% fetal bovine serum, over 72 hours. The method, then:
Likewise, the stability of these complexes was shown via UV/Vis spectrophotometry in cell culture medium over 72 hours.^[ [22] ^] The stability of the newly synthesized compounds was investigated similarly. […] However, the absorption profiles remained distinctly different from those of the corresponding free ligands, which was taken as evidence that the Pd(II) metal center remained chelated by the ligand.
as §1, §2

Data set [3] deals with HeLa cells. The data set is described as follows: MTT antiproliferative / cell viability assay. It is filed as cell-based. Particulars: for IC50: mean of three ± SD; for in vitro activity compared to its ligand: 72 hours. The method, then:
We investigated the antiproliferative activities of compounds 4‒8 against HeLa cells using the standard 3‐(4,5‐dimethylthiazol‐2‐yl)‐2,5‐diphenyltetrazolium bromide (MTT) assay (Table 2). […]
8. Cell viability studies […]
media. All biological experiments were thus conducted using 5 mM stock solutions in DMSO that were diluted with culture medium to produce a final concentration of 0.5% DMSO for all experiments unless specified otherwise.
Cell viability experiments
HeLa cells were harvested, pelleted by centrifugation, and resuspended in cell culture medium. The MTT assays were carried out in 96 well plates at a starting density of 1500 cells per well in 100 µL of culture medium. The next day, a dilution series of 7 different concentrations was prepared for each evaluated compound. After 24 h of incubation, the cells were treated with 100 µL of culture medium containing the prepared conc entrations of the respective compounds to reach a final volume of 200 µL in each well. As a negative control, one series of cells was treated with the vehicle only (0.5% DMSO). […]
MTT dye (2.5 mg/mL). After a further incubation of 2 h, the medium was aspired off, and 200 µL DMSO was added to solubilize the precipitated formazan dye. The formazan absorption was measured on a BMG LABTECH CLARIOstar Plus plate reader at 550 nm, using a reference wavelength of 620 nm. Using the mean absorbance of each set of identically treated wells, a dose-response curve was produced and normalized to the wells containing untreated cells to allow for plate-to-plate comparison. The dose-response curves were then subjected to non-linear regression analysis performed in Microsoft Excel to determine IC50 values. Data is shown as the mean of three replicate experiments, and error bars represent the standard

The nature of data set [4]: Lipophilicity, n-octanol/PBS distribution (logD7.2). It is filed as physicochemical. Particulars: n-octanol/PBS distribution at pH 7.2; mean of three measurements ± SD. The text has this: Having synthesized and assessed the stabilities of the complexes, we moved on to measure their lipophilicities at pH = 7.2 using the n‐octanol/PBS partition coefficient (Table 1).^[ [33], [34] ^] While the complexes were all highly lipophilic, the BODIPY‐conjugated complexes were more lipophilic than their coumarin analogs. In both sets of conjugates, the logD values followed the trend Pd(II) > Pt(II) > Au(III), with the monocationic Au(III) complexes being the least lipophilic.
7. Lipophilicity (logD7.2)
500 mL aliquots of purified octanol and PBS were thoroughly mixed in a 2 L separatory funnel and left overnight to saturate the two phases. For compound sets 5 and 7, 20 μM standard solutions were prepared in PBS-saturated octanol, respectively. 5 mL standard solutions containing the compound in question were then pipetted into 15 mL centrifuge tubes, and a 5 mL aliquot of the octanol-saturated PBS was added. The resulting samples were shaken for 10 min and allowed to rest overnight for 18 hours. The samples were then centrifuged for 30 min (3000 g, 20 °C), and aliquots of the octanol phase were analyzed via UV -Vis spectroscopy.
Experiments were conducted in triplicate. The concentrations of the compounds in the octanol phase were then quantified with respect to their λmax. […]
where A0 = absorbance of 20 μM compound in PBS-saturated octanol

Data set [5] has as its system HeLa cells. The data set is described as follows: Cellular uptake assay, metal content by ICP-MS. It is filed as cell-based. The conditions noted are these: 10 µM, 24 h, whole cell accumulation by ICP-MS. The method, then: Subsequently, we investigated the uptake of the conjugates 5 and 7 (at 10 µM) by incubating HeLa cells with the respective compounds for 24 hours and analyzing the final metal concentration inside the cells using inductively coupled plasma mass spectrometry (ICP‐MS). […]
HeLa cells were harvested and seeded in 100 mm × 21 mm cell culture dishes at a density of 200,000 cells per dish in 10 mL of growth medium. After 96 hours of incubation, when the cells had reached 90% confluency, the growth medium was aspirated and replaced with fresh medium containing 10 μM of a compound belonging to sets 5 or 7, respectively. The cells were incubated with the compound for 24 h, after which the medium was aspirated, and the cells were washed three times with 10 mL of PBS buffer. Subsequently, the washed cells were […]
trypsinized for 3 min, and the trypsin reaction was halted by the addition of 3 mL growth media.
Cells were suspended in the mixture, and the total cell count was determined using a Bio -Rad TC20 cell counter. The cell suspension was centrifuged at 5000 rpm for 5 minutes, and the supernatant was removed. The cells were then digested using 2 mL of aqua regia (3:1 v/v, 37% HCl and 70% HNO3, trace metal basis quality (Aldrich, purity ≥99.999%)) and sonicated at 60 °C for 16 h. The dissolved samples were then diluted with 13 mL of HPLC-grade water to reach a final volume of 15 mL. The total metal content of the samples was then determined via ICP-MS analysis (Thermo Scientific iCAP RQ, ASX-560) in Ar plasma in KED mode with He as collision gas. Reference to standards was made, and calibration curves were developed using commercial calibration standards (TraceCert®, Merck).
Fluorophore Compound Metal content
Table S3: Whole cell accumulation of compound sets 5 and 7 analyzed using ICP-MS and expressed in terms of total metal content. […]

For data set [6], the system named is HeLa cells. Details: method as in PMID 40488845. The conditions noted are these: 24 hours incubation, highest tested concentration 15 µM; cited from earlier work.
Details of data set [7]: method as in PMID 40488845. The conditions noted are these: 1H NMR, over 24 hours; cited from earlier work.
Details of data set [8]: method as in PMID 40488845. The conditions noted are these: UV/Vis, over 72 hours; cited from earlier work.
The mark [9] stands for this setting: 24 hours incubation, read-out: IC50 24 hours.
Setting [10] is: 72 hours incubation, read-out: IC50 72 hours.
Setting [11] is: Homo sapiens, 24 hours incubation, read-out: IC50 24 hours.
The mark [12] stands for this setting: Homo sapiens, 72 hours incubation, read-out: IC50 72 hours.

These results are taken from PMC12699179, “Investigating Metal and Fluorophore Controlled Intracellular Localization in Noble Metal Thiosemicarbazone Complexes” (Chemistry (Weinheim an Der Bergstrasse, Germany), 2025).

Where two headings read alike, the source gives them in different places.

Consider `CN(C)C1=N[N+]2=C(c3ccccn3)c3cccc[n+]3[Au-]2([Cl])[S]1.[Cl][Au-][Cl]` (stereo not shown) [Compound 8a], for which the stability in water entry in data set [1] is “only mild degradation”. Also, the “stability in cell culture medium” value in data set [2] is given as “decomposed”. The IC50 (in general, the concentration at which inhibition is half-maximal) in the data set with HeLa cells [3] (setting [9]) is > 15 µM; in the data set on HeLa cells [3] (setting [10]), 0.009 ± 0.0005 µM. Besides, the “in vitro activity compared to its ligand” value in the data set on HeLa cells [3] was “comparable to their respective ligands”.

As to `CC1=CC(C)=[N+]2C1=Cc1ccc(CCC(=O)NCCc3cccc(C(=NNC(=S)N(C)C)c4ccccn4)n3)n1[B-]2(F)F` [Compound 6], the values for the IC50 in the data set with HeLa cells [3] (setting [11]) and in the data set with HeLa cells [3] (setting [12]) were > 15 µM and 0.8 ± 0.1 µM, respectively.

`CC1=CC(C)=[N+]2C1=Cc1ccc(CCC(=O)NCCc3cccc(C4=[N+]5N=C(N(C)C)[S][Au-]5([Cl])[n+]5ccccc54)n3)n1[B-]2(F)F.F[P-](F)(F)(F)(F)F` (stereo not shown) [Compound 7a]: the “logD 7.2” value in data set [4] is 1.53 ± 0.07. Besides, in the data set with HeLa cells [5], the Metal content is reported as 0.035 ± 0.007 pg/cell. The stability in water result in data set [1] was “only mild degradation”. Also, the “stability in cell culture medium” value in data set [2] is listed as “decomposed”. The IC50 in the data set on HeLa cells [3] (setting [9]) was > 15 µM; in the data set with HeLa cells [3] (setting [10]) it was 0.6 ± 0.1 µM. Further, the “in vitro activity compared to its ligand” value in the data set with HeLa cells [3] was “comparable to their respective ligands”.

Take `CN(C)C(=S)NN=C(c1ccccn1)c1ccccn1` [Dp44mT, di‐2‐pyridylketone‐4,4‐dimethyl‐3‐thiosemicarbazone, reference compound]: in the data set on HeLa cells [6], the “effect on cell viability after 24 hours” value was “did not affect cell viability”. The figures for the IC50 with HeLa cells [3] (setting [11]) and in the data set on HeLa cells [3] (setting [12]) were > 15 µM and 0.009 ± 0.0003 µM, respectively.

On to `CN(C)C1=N[N+]2=C(c3cccc(CCNC(=O)CCCNC(=O)c4cc5cc6c7c(c5oc4=O)CCCN7CCC6)n3)c3cccc[n+]3[Au-]2([Cl])[S]1.F[P-](F)(F)(F)(F)F` (stereo not shown) [Compound 5a], for which the “logD 7.2” value in data set [4] was found to be 0.99 ± 0.02. The same compound returned a Metal content in the data set with HeLa cells [5] of 0.032 ± 0.016 pg/cell. Besides, the “stability in cell culture medium” value in data set [2] was “similarly decomposed”. Further, the IC50 with HeLa cells [3] (setting [9]) is > 15 µM; in the data set with HeLa cells [3] (setting [10]) it was 3.1 ± 0.3 µM. Further, the “in vitro activity compared to its ligand” value in the data set with HeLa cells [3] is recorded as “fourfold lower activity”.

As to `CN(C)C1=N[N+]2=C(c3cccc(CCNC(=O)CCCNC(=O)c4cc5cc6c7c(c5oc4=O)CCCN7CCC6)n3)c3cccc[n+]3[Pt-2]2([Cl])[S]1` (stereo not shown) [Compound 5b], the “logD 7.2” value in data set [4] was 1.47 ± 0.03. The “stability in DMSO-d6” value in data set [7] was “stable”. For the same compound, in the data set on HeLa cells [5], the Metal content is listed as 0.016 ± 0.005 pg/cell. In the data set on HeLa cells [6], the “effect on cell viability after 24 hours” value is “did not affect cell viability”. The “stability in cell culture medium” value in data set [8] is on record as “stable”. The IC50 is > 15 µM in the data set on HeLa cells [3] (setting [9]) and 58.2 ± 4.3 µM in the data set on HeLa cells [3] (setting [10]).

As for `CN(C)C(=S)NN=C(c1ccccn1)c1cccc(CCNC(=O)CCCNC(=O)c2cc3cc4c5c(c3oc2=O)CCCN5CCC4)n1` [Compound 4], the “stability in DMSO-d6” value in data set [7] is listed as “stable”. In addition, the “effect on cell viability after 24 hours” value in the data set on HeLa cells [6] is given as “did not affect cell viability”. Further, the values for the IC50 with HeLa cells [3] (setting [11]) and with HeLa cells [3] (setting [12]) were > 15 µM and 0.8 ± 0.1 µM, respectively.
